Where “and” joins values, the source holds several entries; their conditions need not be identical. Identical values can stand only once. Where only a bound is given, the exact number is not on record here.

The test deals with human mGluR5A (Homo sapiens, UniProt P41594). Kind of test: mGluR5 FLIPR Assay. It counts as cell-based. Conditions: positive modulator activity; HEK293 (ZF) cells with human mGluR5A and rat GLAST; Ca++ response to ~EC10 glutamate.
human mGluR5A, sequence (P41594 21-1180 isoform P41594-2): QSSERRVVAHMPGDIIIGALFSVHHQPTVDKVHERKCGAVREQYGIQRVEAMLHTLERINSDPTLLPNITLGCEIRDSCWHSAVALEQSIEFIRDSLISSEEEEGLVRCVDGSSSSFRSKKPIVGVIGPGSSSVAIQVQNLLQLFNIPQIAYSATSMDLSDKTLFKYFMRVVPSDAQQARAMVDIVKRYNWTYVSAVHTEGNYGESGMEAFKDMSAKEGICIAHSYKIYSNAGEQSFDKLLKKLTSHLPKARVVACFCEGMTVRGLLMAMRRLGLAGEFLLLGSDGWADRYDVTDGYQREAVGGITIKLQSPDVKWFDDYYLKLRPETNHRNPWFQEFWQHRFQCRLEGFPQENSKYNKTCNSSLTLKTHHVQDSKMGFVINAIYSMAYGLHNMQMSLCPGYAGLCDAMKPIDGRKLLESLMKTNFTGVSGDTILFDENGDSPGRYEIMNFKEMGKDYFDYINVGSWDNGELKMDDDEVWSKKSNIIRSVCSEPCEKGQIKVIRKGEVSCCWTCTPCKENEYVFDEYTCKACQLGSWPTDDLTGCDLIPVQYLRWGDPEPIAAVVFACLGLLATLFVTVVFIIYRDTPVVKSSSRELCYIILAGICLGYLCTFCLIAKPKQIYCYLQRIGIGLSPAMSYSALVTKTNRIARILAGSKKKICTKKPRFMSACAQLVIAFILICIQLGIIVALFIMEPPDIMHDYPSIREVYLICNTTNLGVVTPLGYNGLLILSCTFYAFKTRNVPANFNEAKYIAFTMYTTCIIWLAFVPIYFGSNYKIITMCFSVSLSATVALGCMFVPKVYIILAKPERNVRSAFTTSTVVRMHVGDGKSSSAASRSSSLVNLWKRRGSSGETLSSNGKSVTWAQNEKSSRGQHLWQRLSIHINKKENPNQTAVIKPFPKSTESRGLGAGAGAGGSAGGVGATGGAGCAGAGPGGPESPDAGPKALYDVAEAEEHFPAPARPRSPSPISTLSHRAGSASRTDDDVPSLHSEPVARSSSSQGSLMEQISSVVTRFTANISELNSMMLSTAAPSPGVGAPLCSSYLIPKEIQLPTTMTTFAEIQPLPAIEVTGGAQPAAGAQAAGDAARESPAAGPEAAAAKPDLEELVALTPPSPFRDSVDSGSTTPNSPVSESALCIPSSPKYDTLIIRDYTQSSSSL
A word on the EC50: it is the concentration needed to bring the measured effect to its halfway point. A lower EC50 goes with a more potent agent. Consider `O=C1N[C@H](c2cc(C#Cc3ccnc(C4CC4)c3)cnc2F)[C@@H](c2ccc(Cl)cc2)O1` [Example 150, (4R,5R)-5-(4-Chlorophenyl)-4-(5-((2-cyclopropylpyridin-4-yl)ethynyl)-2-fluoropyridin-3-yl)oxazolidin-2-one], for which the concentration giving a half-maximal response (EC50) is greater than 1000 nM.

In the case of `O=C1N[C@H](c2cc(C#Cc3ccc(C4CC4)nc3)cnc2F)[C@@H](c2ccc(F)cc2)O1` [Example 151, (4R,5R)-4-(5-((6-Cyclopropylpyridin-3-yl)ethynyl)-2-fluoropyridin-3-yl)-5-(4-fluorophenyl)oxazolidin-2-one], the concentration for a half-maximal effect (EC50) was greater than 1000 nM.

Molecule `O=C1N[C@H](c2cc(C#Cc3ccnc(C4CC4)c3)cnc2F)[C@@H](c2ccc(F)cc2)O1` [Example 152, (4R,5R)-4-(5-((2-Cyclopropylpyridin-4-yl)ethynyl)-2-fluoropyridin-3-yl)-5-(4-fluorophenyl)oxazolidin-2-one] yielded an EC50 greater than 1000 nM.

On to `O=C1N[C@H](c2cc(C#Cc3cccc(C4CC4)n3)cnc2F)[C@@H](c2ccc(F)cc2)O1` [Example 153, (4R,5R)-4-(5-((6-Cyclopropylpyridin-2-yl)ethynyl)-2-fluoropyridin-3-yl)-5-(4-fluorophenyl)oxazolidin-2-one], for which the EC50 was 100 to 1000 nM and 188 nM.

Take `O=C1N[C@H](c2cc(C#Cc3ccc4nccnc4c3)cnc2F)[C@@H](c2ccc(F)cc2)O1` [Example 154, (4R,5R)-4-(2-fluoro-5-(quinoxalin-6-ylethynyl)pyridin-3-yl)-5-(4-fluorophenyl)oxazolidin-2-one]: the EC50 is greater than 1000 nM.

Regarding `O=C1N[C@H](c2cc(C#Cc3cncc(C4CC4)c3)cnc2F)[C@@H](c2ccc(F)cc2)O1` [Example 155, (4R,5R)-4-(5-((5-Cyclopropylpyridin-3-yl)ethynyl)-2-fluoropyridin-3-yl)-5-(4-fluorophenyl)oxazolidin-2-one], the EC50 is greater than 1000 nM.

`O=C1N[C@H](c2cc(C#Cc3ccccn3)cnc2F)[C@@H](c2ccc(F)cc2)O1` [Example 156, (4R,5R)-4-(2-Fluoro-5-(pyridin-2-ylethynyl)pyridin-3-yl)-5-(4-fluorophenyl)oxazolidin-2-one] yielded an EC50 of less than 100 nM.

In the case of `O=C1N[C@H](c2cc(C#Cc3cccc(F)n3)cnc2F)[C@@H](c2ccc(F)cc2)O1` [Example 157, (4R,5R)-4-(2-Fluoro-5-((6-fluoropyridin-2-yl)ethynyl)pyridin-3-yl)-5-(4-fluorophenyl)oxazolidin-2-one], the half-maximal effective concentration (EC50) is less than 100 nM.

For `O=C1N[C@H](c2cccc(C#Cc3ccccc3)c2)[C@@H](c2nc(-c3ccccc3)no2)O1` [Example 158], the concentration for a half-maximal effect (EC50) is greater than 30000 nM.

For `O=C1N[C@@H](c2cccc(C#Cc3ccccc3)c2)[C@H](c2nc(-c3ccccc3)no2)O1` [Example 159], the EC50 is greater than 1000 nM.

Take `O=C1N[C@H](c2cccc(C#Cc3ccccc3)c2)[C@@H](c2nc(-c3ccncc3)no2)O1` [Example 160]: the EC50 is greater than 1000 nM.

As for `O=C1N[C@@H](c2cccc(C#Cc3ccccc3)c2)[C@H](c2nc(-c3ccncc3)no2)O1` [Example 161], the half-maximal effective concentration (EC50) was greater than 1000 nM.

In turn, `O=C1N[C@H](c2cccc(C#Cc3ccccc3)c2)[C@@H](c2nc(-c3ccccn3)no2)O1` [Example 162] had an EC50 greater than 1000 nM.

Molecule `O=C1N[C@@H](c2cccc(C#Cc3ccccc3)c2)[C@H](c2nc(-c3ccccn3)no2)O1` [Example 163] had an EC50 greater than 1000 nM.

In turn, `O=C1N[C@H](c2cccc(C#Cc3ccccc3)c2)[C@@H](c2nc(-c3cccnc3)no2)O1` [Example 164] returned a concentration giving a half-maximal response (EC50) greater than 1000 nM.

`O=C1N[C@@H](c2cccc(C#Cc3ccccc3)c2)[C@H](c2nc(-c3cccnc3)no2)O1` [Example 165] returned an EC50 greater than 1000 nM.

Regarding `Cc1noc([C@H]2OC(=O)N[C@@H]2c2cccc(C#Cc3ccccc3)c2)n1` [Example 166], the 50% effective concentration (EC50) is greater than 1000 nM.

In turn, `Cc1noc([C@@H]2OC(=O)N[C@H]2c2cccc(C#Cc3ccccc3)c2)n1` [Example 167] returned an EC50 greater than 1000 nM.

Molecule `O=C1N[C@H](c2cccc(C#Cc3ccccc3)c2)[C@@H](c2nnn[nH]2)O1` [Example 168, (4R,5S)-4-(3-(Phenylethynyl)phenyl)-5-(1H-tetrazol-5-yl)oxazolidin-2-one] yielded a half-maximal effective concentration (EC50) greater than 1000 nM.

Molecule `Cn1nnc([C@H]2OC(=O)N[C@@H]2c2cccc(C#Cc3ccccc3)c2)n1` [Example 169, (4R,5S)-5-(2-Methyl-2H-tetrazol-5-yl)-4-(3-(phenylethynyl)phenyl)oxazolidin-2-one] registered a half-maximal effective concentration (EC50) greater than 1000 nM.

For the molecule `O=C1N[C@H](c2cncc(C#Cc3ccccc3)c2)[C@@H](c2cc(F)cc(F)c2)O1` [Example 170], the EC50 was less than 100 nM.

In turn, `O=C1N[C@H](c2cncc(C#Cc3cncc(F)c3)c2)[C@@H](c2cc(F)cc(F)c2)O1` [Example 171] displayed an EC50 of less than 100 nM.

Molecule `O=C1N[C@H](c2cncc(C#Cc3ccccc3)c2)[C@@H](c2ccc(F)c(F)c2)O1` [Example 172] returned a half-maximal effective concentration (EC50) of less than 100 nM.

Consider `O=C1N[C@H](c2cncc(C#Cc3cccnc3)c2)[C@@H](c2ccc(F)c(F)c2)O1` [Example 173], for which the EC50 was less than 100 nM.

`N#Cc1cccc(C#Cc2cncc([C@H]3NC(=O)O[C@@H]3c3cc(F)cc(F)c3)c2)c1` [Example 174]: the EC50 is greater than 1000 nM.

For `O=C1N[C@H](c2cncc(C#Cc3cncc(F)c3)c2)[C@@H](c2ccc(F)c(F)c2)O1` [Example 175], the EC50 is less than 100 nM.

In the case of `N#Cc1cccc(C#Cc2cncc([C@H]3NC(=O)O[C@@H]3c3ccc(F)c(F)c3)c2)c1` [Example 176], the 50% effective concentration (EC50) is < 100 nM and 5.2 nM.

As for `O=C1N[C@H](c2cncc(C#Cc3ccccn3)c2)[C@@H](c2cc(F)cc(F)c2)O1` [Example 177], the EC50 was greater than 1000 nM.

With `O=C1N[C@H](c2cncc(C#Cc3ccccn3)c2)[C@@H](c2ccc(F)c(F)c2)O1` [Example 178], the concentration for a half-maximal effect (EC50) is 100 to 1000 nM and 117 nM.

Regarding `O=C1N[C@H](c2cncc(C#Cc3ccccc3)c2)[C@@H](c2ccc(F)cc2F)O1` [Example 179], the EC50 was less than 100 nM.

In the case of `N#Cc1cccc(C#Cc2cncc([C@H]3NC(=O)O[C@@H]3c3ccc(F)cc3F)c2)c1` [Example 180], the EC50 was 100 to 1000 nM and 259 nM.

With `O=C1N[C@H](c2cncc(C#Cc3cccnc3)c2)[C@@H](c2cc(F)cc(F)c2)O1` [Example 181], the EC50 is 100 to 1000 nM and 279 nM.

In turn, `O=C1N[C@H](c2cncc(C#Cc3cncc(F)c3)c2)[C@@H](c2ccc(F)cc2F)O1` [Example 182] returned an EC50 of less than 100 nM.

Consider `O=C1N[C@H](c2cncc(C#Cc3ccccn3)c2)[C@@H](c2ccc(F)cc2F)O1` [Example 183], for which the concentration giving a half-maximal response (EC50) is less than 100 nM.

`O=C1N[C@H](c2cncc(C#Cc3cccnc3)c2)[C@@H](c2ccc(F)cc2F)O1` [Example 184] returned an EC50 of less than 100 nM.

Consider `O=C1N[C@H](c2cncc(C#Cc3cccnc3)c2)[C@@H](c2cc(F)ccc2F)O1` [Example 186], for which the concentration giving a half-maximal response (EC50) was less than 100 nM.

On to `O=C1N[C@H](c2cncc(C#Cc3cncc(F)c3)c2)[C@@H](c2cc(F)ccc2F)O1` [Example 187], for which the concentration giving a half-maximal response (EC50) is less than 100 nM.

`N#Cc1cccc(C#Cc2cncc([C@H]3NC(=O)O[C@@H]3c3cc(F)ccc3F)c2)c1` [Example 188] returned an EC50 greater than 1000 nM.

For `O=C1N[C@H](c2cncc(C#Cc3ccccn3)c2)[C@@H](c2cc(F)ccc2F)O1` [Example 189], the EC50 is greater than 1000 nM.

Regarding `N#Cc1cccc(C#Cc2cncc([C@@H]3NC(=O)O[C@H]3c3cc(F)cc(F)c3)c2)c1` [Example 190], the EC50 is greater than 1000 nM.

`O=C1N[C@@H](c2cncc(C#Cc3ccccn3)c2)[C@H](c2cc(F)cc(F)c2)O1` [Example 191] yielded an EC50 greater than 1000 nM.

`COc1cccc([C@H]2OC(=O)N[C@@H]2c2cccc(C#Cc3cc(F)ccn3)c2)c1` [Example 193] returned a half-maximal effective concentration (EC50) of less than 100 nM.

As to `COc1cccc([C@H]2OC(=O)N[C@@H]2c2cccc(C#Cc3ccc(F)cn3)c2)c1` [Example 195], the EC50 was greater than 1000 nM.

`COc1cccc([C@H]2OC(=O)N[C@@H]2c2cccc(C#Cc3ncccc3F)c2)c1` [Example 196] yielded an EC50 of less than 100 nM.

In the case of `COc1cccc([C@H]2OC(=O)N[C@@H]2c2cccc(C#Cc3cnc4cc[nH]c4c3)c2)c1` [Example 197], the EC50 is greater than 1000 nM.

In turn, `O=C1N[C@H](c2cncc(C#Cc3ccccc3)c2)[C@@H](c2cccnc2)O1` [Example 198] showed a half-maximal effective concentration (EC50) of less than 100 nM.

The molecule `O=C1N[C@@H](c2cncc(C#Cc3ccccc3)c2)[C@H](c2cccnc2)O1` [Example 199] came in with a concentration giving a half-maximal response (EC50) greater than 1000 nM.

With `COc1cccc([C@H]2OC(=O)N[C@@H]2c2cccc(C#Cc3ccnnc3)c2)c1` [Example 200], the EC50 was greater than 1000 nM.

`O=C1N[C@H](c2cncc(C#Cc3cncc(F)c3)c2)[C@@H](c2cccnc2)O1` [Example 201] came in with a 50% effective concentration (EC50) of 100 to 1000 nM.

In the case of `O=C1N[C@@H](c2cncc(C#Cc3cncc(F)c3)c2)[C@H](c2cccnc2)O1` [Example 202], the EC50 is greater than 1000 nM.

Take `C[C@]1(c2ccc(F)cc2)OC(=O)N[C@@H]1c1cncc(C#Cc2ccccc2)c1` [Example 203]: the EC50 is < 100 nM and 2.5 nM.

`C[C@@]1(c2ccc(F)cc2)OC(=O)N[C@H]1c1cncc(C#Cc2ccccc2)c1` [Example 204] came in with an EC50 of less than 100 nM.

For the molecule `C[C@@]1(c2ccc(F)cc2)OC(=O)N[C@@H]1c1cncc(C#Cc2ccccc2)c1` [Example 205], the EC50 is < 100 nM and 2.2 nM.

Molecule `C[C@]1(c2ccc(F)cc2)OC(=O)N[C@H]1c1cncc(C#Cc2ccccc2)c1` [Example 206] registered a concentration for a half-maximal effect (EC50) of 100 to 1000 nM.

In turn, `C[C@@]1(c2ccc(F)cc2)OC(=O)N[C@H]1c1cncc(C#Cc2cncc(F)c2)c1` [Example 207] yielded an EC50 greater than 1000 nM.

For `C[C@]1(c2ccc(F)cc2)OC(=O)N[C@@H]1c1cncc(C#Cc2cncc(F)c2)c1` [Example 208], the EC50 is less than 100 nM.

Take `O=C1N[C@H](c2cncc(C#Cc3ncccc3F)c2)[C@@H](c2ccc(F)cc2)O1` [Example 209]: the EC50 is less than 100 nM.

Consider `O=C1N[C@H](c2cncc(C#Cc3ccccn3)c2)[C@@H](c2ccc(F)cc2)O1` [Example 210], for which the EC50 was less than 100 nM.

Consider `N#Cc1cncc(C#Cc2cncc([C@H]3NC(=O)O[C@@H]3c3ccc(F)cc3)c2)c1` [Example 211], for which the concentration giving a half-maximal response (EC50) is less than 100 nM.

The molecule `O=C1N[C@H](c2cncc(C#Cc3cnccn3)c2)[C@@H](c2ccc(F)cc2)O1` [Example 212] had an EC50 of less than 100 nM.

The values above are taken from patent USRE49735E1 (BRISTOL-MYERS SQUIBB COMPANY, priority 2010, dated 2023).
